Our source for the TGI values is PubChem BioAssay (NCI).

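Values below derive from 48-hour exposures of cells grown in 96-well plates, with endpoints linearly interpolated between the two concentrations bracketing the appropriate inhibition level. TGI is the concentration that stops growth completely.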

Holding throughout (assay): NCI tumour cell line growth inhibition, 48 h
Experiment [1] deals with A498 renal.
Experiment [2] concerns HCC-2998 colon.
Experiment [3] relates to HCT-116 colon.
For experiment [4], the system named is HCT-15 colon.
The subject of experiment [5] is HOP-62 NSCLC.
The test system of experiment [6] is HT29 colon.
The subject of experiment [7] is IGROV1 ovarian.
In experiment [8] the test system is K-562 leukemia.
In experiment [9] the test system is KM12 colon.
Experiment [10] has as its system MCF7 breast.
The subject of experiment [11] is NCI-H226 lung.
Experiment [12] relates to OVCAR-4 ovarian.
In experiment [13] the test system is PC-3 prostate.
In experiment [14] the test system is SK-OV-3 ovarian.

Consider `O=c1c2c3c(sc2nc2n1sc1nc4sc5c(c4c(=O)n12)CCCC5)CCCC3`, for which the TGI in experiment [1] was over 100 µM; in experiment [2] it was over 76.8 µM; in [3], over 100 µM; in experiment [4], over 100 µM; in [5] it was over 100 µM; in [6], over 58.8 µM. Moreover, the TGI in experiment [7] was over 100 µM; in [8] it was over 63.3 µM; in [9], over 100 µM; in experiment [10], 50.8 µM; in [11] it was 98.1 µM; in experiment [12] it was 37.2 µM. The TGI in experiment [13] and in [14] was over 100 µM each time.
As for `COC(=O)CSc1cc(Cl)c(C)cc1S(=O)(=O)Nc1n[nH]c(N)n1`, the TGI in experiment [1], in [2], in experiment [3], in [4], in experiment [5] and in [6] was over 10 µM throughout. The TGI in [7], in experiment [8], in experiment [9], in experiment [10], in [11] and in experiment [12] was over 10 µM each time. The TGI in experiment [13] and in experiment [14] was over 10 µM throughout.
On to `O=[N+]([O-])c1ccccc1S(=O)(=O)c1cccc2c1NCCC2`, for which the TGI in [1], in experiment [2], in [3], in experiment [4], in [5] and in experiment [6] was over 100 µM in each case. The TGI in experiment [7], in experiment [8], in experiment [9], in [10], in experiment [11] and in [12] was over 100 µM each time. Further, the TGI in experiment [13] and in experiment [14] was over 100 µM in each case.
As for `CCN(CC)CCC(=O)c1ccc(Cl)c(Cl)c1`, the TGI in experiment [1] was 76 µM; in [2] it was over 100 µM; in experiment [3], 68.3 µM; in [4] it was over 100 µM; in experiment [5], over 100 µM; in [6], over 100 µM. Besides, the TGI in experiment [7] is over 100 µM; in experiment [8], over 100 µM; in experiment [9] it was over 100 µM; in experiment [10] it was 28.8 µM; in experiment [11] it was over 100 µM; in [12], over 100 µM. Further, the TGI in experiment [13] and in experiment [14] was over 100 µM each time.
